Experimental data from patent US12396461B2, “Functional peptides having antimicrobial activity against phytopathogenic microorganisms” (TOYOTA JIDOSHA KABUSHIKI KAISHA, priority 2019, dated 2025).
Read-outs that look alike come from different tables or passages of the source.

Key:
Assay type in all cases: cell-based
Botrytis cinerea = test system: Botrytis cinerea; set-up: key to Plate antimicrobial activity test Botrytis cinerea, level: a case where hyphae extended to the entire well and no antimicrobial activity was found is defined as “level 0,”; a case where hyphae extended to less than a half of the well and thus the peptide inhibited the growth of the hyphae is defined as “level 1,”; a case where ungerminated spores were present and the peptide partially inhibited the germination is defined as “level 2,”; a case where all spores were ungerminated and the peptide completely inhibited the germination is defined as “level 3.”; conditions: 25° C. for 1 day or 2 days, microscopic observation
[1] = test system: Colletotrichum orbiculare; set-up: key to Plate antimicrobial activity test Colletotrichum orbiculare, level: a case where hyphae extended to the entire well and no antimicrobial activity was found is defined as “level 0,”; a case where hyphae extended to less than a half of the well and thus the peptide inhibited the growth of the hyphae is defined as “level 1,”; a case where ungerminated spores were present and the peptide partially inhibited the germination is defined as “level 2,”; a case where all spores were ungerminated and the peptide completely inhibited the germination is defined as “level 3.”; conditions: 25° C. for 1 day or 2 days, microscopic observation
Fusarium oxysporum = test system: Fusarium oxysporum; set-up: key to Plate antimicrobial activity test Fusarium oxysporum, level: a case where hyphae extended to the entire well and no antimicrobial activity was found is defined as “level 0,”; a case where hyphae extended to less than a half of the well and thus the peptide inhibited the growth of the hyphae is defined as “level 1,”; a case where ungerminated spores were present and the peptide partially inhibited the germination is defined as “level 2,”; a case where all spores were ungerminated and the peptide completely inhibited the germination is defined as “level 3.”
Pyricularia oryzae = test system: Pyricularia oryzae; set-up: key to Plate antimicrobial activity test Pyricularia oryzae, level: a case where hyphae extended to the entire well and no antimicrobial activity was found is defined as “level 0,”; a case where hyphae extended to less than a half of the well and thus the peptide inhibited the growth of the hyphae is defined as “level 1,”; a case where ungerminated spores were present and the peptide partially inhibited the germination is defined as “level 2,”; a case where all spores were ungerminated and the peptide completely inhibited the germination is defined as “level 3.”; conditions: 25° C. for 1 day or 2 days, microscopic observation
[2] = test system: Colletotrichum destructivum; set-up: key to Plate antimicrobial activity test Colletotrichum destructivum, level: a case where hyphae extended to the entire well and no antimicrobial activity was found is defined as “level 0,”; a case where hyphae extended to less than a half of the well and thus the peptide inhibited the growth of the hyphae is defined as “level 1,”; a case where ungerminated spores were present and the peptide partially inhibited the germination is defined as “level 2,”; a case where all spores were ungerminated and the peptide completely inhibited the germination is defined as “level 3.”; conditions: 25° C. for 1 day or 2 days, microscopic observation

Substance	Plate antimicrobial activity test Botrytis cinerea, level (Botrytis cinerea; peptide 1 μM)	Plate antimicrobial activity test Botrytis cinerea, level (Botrytis cinerea; peptide 10 μM)	Plate antimicrobial activity test Botrytis cinerea, level (Botrytis cinerea; peptide 100 μM)	Plate antimicrobial activity test Colletotrichum orbiculare, level ([1]; peptide 1 μM)	Plate antimicrobial activity test Colletotrichum orbiculare, level ([1]; peptide 10 μM)	Plate antimicrobial activity test Colletotrichum orbiculare, level ([1]; peptide 100 μM)	Plate antimicrobial activity test Fusarium oxysporum, level (Fusarium oxysporum)	Plate antimicrobial activity test Pyricularia oryzae, level (Pyricularia oryzae; peptide 1 μM)	Plate antimicrobial activity test Pyricularia oryzae, level (Pyricularia oryzae; peptide 10 μM)	Plate antimicrobial activity test Pyricularia oryzae, level (Pyricularia oryzae; peptide 100 μM)	Plate antimicrobial activity test Colletotrichum destructivum, level ([2]; peptide 1 μM)	Plate antimicrobial activity test Colletotrichum destructivum, level ([2]; peptide 10 μM)	Plate antimicrobial activity test Colletotrichum destructivum, level ([2]; peptide 100 μM)
KKVAKMMV (listed as Solanum lycopersicum) [TsORF6-1-8aa-14, partial peptide of TsORF6-1, 8 amino acid residues]	0	0	0	0	0	0	0	0	0	0	0	0	0
KNKKV (listed as Solanum lycopersicum) [TsORF6-1-5aa-12, partial peptide of TsORF6-1, 5 amino acid residues]	0	0	0	0	0	0	0	0	0	0	0	0	0
KTKVKNKK (listed as Solanum lycopersicum) [TsORF6-1-8aa-8, partial peptide of TsORF6-1, 8 amino acid residues]	0	0	1	0	0	0	0	0	0	0	0	0	0
VKTKV (listed as Solanum lycopersicum) [TsORF6-1-5aa-7, partial peptide of TsORF6-1, 5 amino acid residues]	0	0	0	0	0	0	0	0	0	0	0	0	0
NKKVA (listed as Solanum lycopersicum) [TsORF6-1-5aa-13, partial peptide of TsORF6-1, 5 amino acid residues]	0	0	0	0	0	0	0	0	0	0	0	0	0
MIVVKTKV (listed as Solanum lycopersicum) [TsORF6-1-8aa-4, partial peptide of TsORF6-1, 8 amino acid residues]	0	0	0	0	0	0	0	0	0	0	0	0	0
VKNKK (listed as Solanum lycopersicum) [TsORF6-1-5aa-11, partial peptide of TsORF6-1, 5 amino acid residues]	0	0	0	0	0	0	0	0	0	0	0	0	0
MIVVK (listed as Solanum lycopersicum) [TsORF6-1-5aa-4, partial peptide of TsORF6-1, 5 amino acid residues]	0	0	1	0	0	1	0	0	0	1	0	0	1
VVKTKVKN (listed as Solanum lycopersicum) [TsORF6-1-8aa-6, partial peptide of TsORF6-1, 8 amino acid residues]	0	0	0	0	0	0	0	0	0	0	0	0	0
EELMVVAEEEAYRRVRGGMGW (listed as Solanum lycopersicum) [TsORF6-3, chemically synthesized region of TsORF6]	0	0	0	0	0	0	0	0	0	0	0	0	0
